Measured values as given in paper PMC3914206.

Tests used:
Assay type in all cases: binding
[1] = target: T1, panel of 442 kinases (Homo sapiens, UniProt P04626); details: Compound Concentration 10 µM
T1 construct: purchased KINOMEscan
Excerpt: (§1) We assessed the selectivity of members of this scaffold using the KINOMEscan methodology across a near comprehensive panel of 442 kinases [[18,27]].

[2] = target: T2, panel of 442 kinases (Homo sapiens, UniProt Q9UQ88); details: Compound Concentration 10 µM
T2 construct: purchased KINOMEscan
T2 sequence (Q9UQ88 1-783): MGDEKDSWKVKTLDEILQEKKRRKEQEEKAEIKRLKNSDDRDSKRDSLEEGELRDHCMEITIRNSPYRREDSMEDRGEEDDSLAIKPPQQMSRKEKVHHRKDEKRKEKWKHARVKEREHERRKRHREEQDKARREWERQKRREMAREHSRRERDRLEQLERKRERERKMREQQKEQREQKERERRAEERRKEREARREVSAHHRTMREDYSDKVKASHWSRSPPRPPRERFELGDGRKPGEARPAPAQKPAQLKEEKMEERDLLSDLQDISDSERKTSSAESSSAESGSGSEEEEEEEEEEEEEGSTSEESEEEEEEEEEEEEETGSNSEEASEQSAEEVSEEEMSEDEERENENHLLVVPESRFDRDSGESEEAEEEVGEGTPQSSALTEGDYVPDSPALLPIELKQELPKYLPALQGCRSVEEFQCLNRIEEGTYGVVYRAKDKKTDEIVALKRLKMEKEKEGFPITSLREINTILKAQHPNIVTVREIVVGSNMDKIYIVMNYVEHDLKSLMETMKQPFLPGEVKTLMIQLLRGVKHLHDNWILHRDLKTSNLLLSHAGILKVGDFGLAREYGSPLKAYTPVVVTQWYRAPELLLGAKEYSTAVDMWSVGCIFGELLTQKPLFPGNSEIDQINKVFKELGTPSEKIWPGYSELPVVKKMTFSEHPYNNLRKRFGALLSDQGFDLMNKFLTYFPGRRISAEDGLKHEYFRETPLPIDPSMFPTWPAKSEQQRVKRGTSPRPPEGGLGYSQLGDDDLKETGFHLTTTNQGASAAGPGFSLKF
Excerpt: as §1

[3] = target: T3, panel of 442 kinases (Homo sapiens, UniProt Q16288); details: kinase TRKC; compound concentration 10 µM
T3 construct: purchased KINOMEscan
T3 sequence (Q16288 32-839): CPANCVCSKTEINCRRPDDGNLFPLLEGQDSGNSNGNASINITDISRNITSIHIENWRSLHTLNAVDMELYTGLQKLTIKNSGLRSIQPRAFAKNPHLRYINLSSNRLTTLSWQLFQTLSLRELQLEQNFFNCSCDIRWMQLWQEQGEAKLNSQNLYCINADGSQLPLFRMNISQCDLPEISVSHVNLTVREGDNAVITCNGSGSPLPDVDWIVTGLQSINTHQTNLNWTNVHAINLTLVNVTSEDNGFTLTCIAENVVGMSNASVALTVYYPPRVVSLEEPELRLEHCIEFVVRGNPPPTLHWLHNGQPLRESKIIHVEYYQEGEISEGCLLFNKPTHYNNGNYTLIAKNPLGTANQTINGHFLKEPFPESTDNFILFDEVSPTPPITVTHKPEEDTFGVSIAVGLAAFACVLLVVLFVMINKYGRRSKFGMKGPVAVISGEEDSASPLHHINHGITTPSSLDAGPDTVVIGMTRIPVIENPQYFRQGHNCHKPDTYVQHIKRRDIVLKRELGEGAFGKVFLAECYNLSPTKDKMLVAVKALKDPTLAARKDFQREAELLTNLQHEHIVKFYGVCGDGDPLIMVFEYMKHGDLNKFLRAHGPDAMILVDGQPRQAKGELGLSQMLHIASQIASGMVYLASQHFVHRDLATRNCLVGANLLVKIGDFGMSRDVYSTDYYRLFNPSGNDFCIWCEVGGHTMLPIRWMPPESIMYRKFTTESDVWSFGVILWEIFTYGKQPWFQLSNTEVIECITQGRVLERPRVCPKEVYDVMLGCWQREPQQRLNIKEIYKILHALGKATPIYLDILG
Excerpt: as §1

T1 sequence (P04626 23-1255): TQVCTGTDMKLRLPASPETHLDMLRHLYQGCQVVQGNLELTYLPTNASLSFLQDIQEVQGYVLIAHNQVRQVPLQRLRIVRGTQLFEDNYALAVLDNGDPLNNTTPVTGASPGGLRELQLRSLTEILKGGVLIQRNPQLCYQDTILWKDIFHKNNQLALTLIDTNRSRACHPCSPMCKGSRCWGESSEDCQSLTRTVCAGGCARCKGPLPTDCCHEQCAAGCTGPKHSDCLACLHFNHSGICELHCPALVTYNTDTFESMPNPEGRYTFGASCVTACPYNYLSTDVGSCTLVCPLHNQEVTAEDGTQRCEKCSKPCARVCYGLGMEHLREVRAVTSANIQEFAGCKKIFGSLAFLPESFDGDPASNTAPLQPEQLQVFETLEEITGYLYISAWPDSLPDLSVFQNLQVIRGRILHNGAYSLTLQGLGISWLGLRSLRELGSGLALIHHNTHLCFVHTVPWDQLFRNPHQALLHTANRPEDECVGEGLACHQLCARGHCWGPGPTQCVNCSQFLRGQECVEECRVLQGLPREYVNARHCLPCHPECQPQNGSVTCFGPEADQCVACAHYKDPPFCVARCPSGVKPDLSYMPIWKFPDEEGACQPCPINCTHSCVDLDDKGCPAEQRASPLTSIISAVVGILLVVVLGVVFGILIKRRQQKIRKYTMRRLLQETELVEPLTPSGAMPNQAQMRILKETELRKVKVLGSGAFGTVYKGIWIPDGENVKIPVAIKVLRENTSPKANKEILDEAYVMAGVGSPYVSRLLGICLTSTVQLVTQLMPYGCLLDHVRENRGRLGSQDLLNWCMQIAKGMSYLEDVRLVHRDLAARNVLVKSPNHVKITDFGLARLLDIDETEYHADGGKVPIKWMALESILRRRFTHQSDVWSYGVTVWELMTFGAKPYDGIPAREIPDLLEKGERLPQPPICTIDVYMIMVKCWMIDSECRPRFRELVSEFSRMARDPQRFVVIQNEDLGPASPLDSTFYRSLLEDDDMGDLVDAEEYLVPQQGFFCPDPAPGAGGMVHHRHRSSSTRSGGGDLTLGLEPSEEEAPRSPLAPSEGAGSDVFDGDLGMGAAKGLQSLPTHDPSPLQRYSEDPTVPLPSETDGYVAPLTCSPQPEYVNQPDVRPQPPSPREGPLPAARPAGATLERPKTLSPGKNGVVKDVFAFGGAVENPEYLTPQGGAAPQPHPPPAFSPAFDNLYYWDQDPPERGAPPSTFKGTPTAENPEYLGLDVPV

SMILES | KINOMEscan: ERBB2 [1] | KINOMEscan: CDC2L2 [2] | % Ctrl, TRKC [3] [% Ctrl]
CCOc1cc(C(=O)N2CCC(N3CCN(C)CC3)CC2)ccc1Nc1ncc2c(n1)N(C1CCCC1)c1ccccc1C(=O)N2C [Compound 26] | 100 | 100 | 90
COc1cc(C(=O)N2CCC(N3CCN(C)CC3)CC2)ccc1Nc1ncc2c(n1)N(C1CCCC1)c1ccccc1C(=O)N2C [Compound 25, 11-cyclopentyl-2-((2-methoxy-4-(4-(4-methylpiperazin-1-yl)piperidine-1-carbonyl)phenyl)amino)-5-methyl-5H-benzo[e]pyrimido[5,4-b][1,4]diazepin-6(11H)-one] | 100 | 100 | 100
COc1cc(C(=O)N2CCC(N3CCN(C)CC3)CC2)ccc1Nc1ncc2c(n1)N1CCc3cccc(c31)C(=O)N2C [Compound 24] | – | – | 100
COc1cc(C(=O)N2CCC(N3CCN(C)CC3)CC2)ccc1Nc1ncc2c(n1)N(C)c1ccccc1C(=O)N2C [15 (LRRK2-IN-1)] | 100 | 82 | 100
